{"source": "patent US20130289056A1", "about": "“METHODS OF ADMINISTERING AN EGFR INHIBITOR” (Boehringer Ingelheim International GmbH, priority 2010, published 2013)", "key": {"[1]": {"test": "Phase I two-way crossover trial: effect of ritonavir on pharmacokinetics of BIBW 2992"}, "CYP3A4": {"molecular_target": "T1, CYP3A4 (Homo sapiens, UniProt P08684)", "T1 construct": "host or cells: healthy volunteers (in vivo)", "T1 sequence (P08684 whole entry)": "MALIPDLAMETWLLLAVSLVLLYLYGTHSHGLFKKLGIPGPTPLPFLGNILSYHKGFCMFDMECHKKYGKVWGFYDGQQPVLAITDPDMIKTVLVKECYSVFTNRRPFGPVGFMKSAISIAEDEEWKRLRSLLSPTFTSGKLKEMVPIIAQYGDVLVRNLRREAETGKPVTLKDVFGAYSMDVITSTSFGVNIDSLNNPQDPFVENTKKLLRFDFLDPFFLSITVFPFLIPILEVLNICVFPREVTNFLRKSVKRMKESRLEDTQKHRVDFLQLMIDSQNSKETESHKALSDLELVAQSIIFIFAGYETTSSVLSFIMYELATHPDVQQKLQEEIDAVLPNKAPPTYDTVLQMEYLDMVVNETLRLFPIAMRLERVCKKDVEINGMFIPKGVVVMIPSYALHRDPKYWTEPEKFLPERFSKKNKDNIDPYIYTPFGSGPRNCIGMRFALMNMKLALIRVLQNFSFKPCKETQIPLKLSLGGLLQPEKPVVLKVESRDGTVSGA", "test": "CYP3A4-catalysed metabolism of BIBW 2992 in vivo (previous studies)"}, "[2]": {"molecular_target": "P-glycoprotein (MDR1, ABCB1) (Homo sapiens, UniProt P08183)", "sequence (P08183 whole entry)": "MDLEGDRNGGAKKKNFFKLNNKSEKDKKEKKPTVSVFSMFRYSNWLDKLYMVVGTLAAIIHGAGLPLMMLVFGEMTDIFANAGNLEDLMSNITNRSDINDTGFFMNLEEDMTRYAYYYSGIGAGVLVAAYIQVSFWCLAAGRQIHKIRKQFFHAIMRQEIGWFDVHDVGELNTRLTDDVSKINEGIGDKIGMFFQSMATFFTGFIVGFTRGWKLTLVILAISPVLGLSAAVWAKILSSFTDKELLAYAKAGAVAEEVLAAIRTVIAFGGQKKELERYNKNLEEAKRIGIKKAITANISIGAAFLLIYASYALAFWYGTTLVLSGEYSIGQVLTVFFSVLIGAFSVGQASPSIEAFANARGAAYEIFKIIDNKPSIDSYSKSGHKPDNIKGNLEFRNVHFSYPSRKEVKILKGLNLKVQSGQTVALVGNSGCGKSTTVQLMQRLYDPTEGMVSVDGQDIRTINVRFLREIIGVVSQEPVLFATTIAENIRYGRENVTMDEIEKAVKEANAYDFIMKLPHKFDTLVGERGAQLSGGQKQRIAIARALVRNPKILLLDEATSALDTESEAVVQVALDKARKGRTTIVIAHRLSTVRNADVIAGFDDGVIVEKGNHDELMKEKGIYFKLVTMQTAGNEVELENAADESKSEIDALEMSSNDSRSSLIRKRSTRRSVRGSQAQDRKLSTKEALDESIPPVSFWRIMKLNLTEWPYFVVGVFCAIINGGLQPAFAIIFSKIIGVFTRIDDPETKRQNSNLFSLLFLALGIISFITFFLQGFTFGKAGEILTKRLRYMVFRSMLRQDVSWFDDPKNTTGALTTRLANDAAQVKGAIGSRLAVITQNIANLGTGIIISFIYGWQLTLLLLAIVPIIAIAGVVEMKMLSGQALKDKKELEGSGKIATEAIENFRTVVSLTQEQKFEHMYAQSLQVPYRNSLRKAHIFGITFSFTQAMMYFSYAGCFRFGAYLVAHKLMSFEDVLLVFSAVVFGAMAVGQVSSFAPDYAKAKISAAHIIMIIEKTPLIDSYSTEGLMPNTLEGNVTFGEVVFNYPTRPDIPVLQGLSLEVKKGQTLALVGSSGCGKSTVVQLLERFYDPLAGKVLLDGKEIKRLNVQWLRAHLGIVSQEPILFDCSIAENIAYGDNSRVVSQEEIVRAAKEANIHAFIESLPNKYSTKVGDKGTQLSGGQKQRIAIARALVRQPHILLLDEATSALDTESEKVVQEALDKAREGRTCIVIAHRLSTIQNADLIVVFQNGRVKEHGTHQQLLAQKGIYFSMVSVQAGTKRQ", "test": "P-gp transport profiling (substrate)", "format": "in vitro ADME", "conditions": "human, Caco-2 cell layers; estimated", "text": "(§1) Passive Permeability through CaCo-2 Cell Layers and P-gp Transport Profiling: […]"}, "[3]": {"molecular_target": "T2, P-glycoprotein (a.k.a. MDR1, ABCB1) (Homo sapiens, UniProt P08183)", "T2 sequence (P08183 whole entry)": "as above", "test": "P-gp transport profiling (substrate)", "format": "in vitro ADME", "conditions": "in vitro", "text": "as §1"}, "[4]": {"molecular_target": "T2, P-glycoprotein (a.k.a. MDR1, ABCB1)", "test": "Inhibition of P-gp by BIBW 2992", "format": "in vitro ADME", "conditions": "mean of two independent experiments; read-out: estimated Ki as inhibitor of P-gp", "text": "as §1"}, "CaCo-2 cell layers": {"system": "CaCo-2 cell layers", "test": "Passive permeability through CaCo-2 cell layers", "format": "in vitro ADME", "text": "as §1"}, "[5]": {"conditions": "in vivo; cited from earlier work"}}, "data": [{"smiles": "CN(C)C/C=C/C(=O)Nc1cc2c(Nc3ccc(F)c(Cl)c3)ncnc2cc1O[C@H]1CCOC1.O=C(O)/C=C\\C(=O)O.O=C(O)/C=C\\C(=O)O", "note": "[BIBW 2992, 4-[(3-chloro-4-fluorophenyl)amino]-6-{[4-(N,N-dimethylamino)-1-oxo-2-buten-1-yl]amino}-7-((S)-tetrahydrofuran-3-yloxy)-quinazoline]", "values": [{"measurement": "AUC0-∞ increase compared with BIBW 2992 given alone", "setting": "[1]; BIBW 2992 20 mg oral with ritonavir 200 mg twice daily, healthy male volunteers, 90% CI 133.7%, 162.9%", "result": 47.6, "unit": "%"}, {"measurement": "AUC0-tz increase compared with BIBW 2992 given alone", "setting": "[1]; BIBW 2992 20 mg oral with ritonavir 200 mg twice daily, healthy male volunteers, 90% CI 134.5%, 165.1%", "result": 49.0, "unit": "%"}, {"measurement": "Tmax", "setting": "[1]; male, human, in vivo, oral, 20 mg", "result": 4, "unit": "h"}, {"measurement": "terminal half-life, effect of ritonavir cotreatment", "setting": "[1]; with ritonavir 200 mg bid vs alone", "result": "unchanged"}, {"measurement": "CYP3A4-dependent N-demethylation", "setting": "CYP3A4; healthy volunteers", "result": "too low to be quantitatively detected"}, {"measurement": "role of CYP3A4 enzyme-catalysed metabolic reactions for metabolism", "setting": "CYP3A4; in vivo", "result": "subordinate role"}, {"measurement": "Km", "setting": "[2]", "result": "10 to 30", "unit": "µM"}, {"measurement": "P-gp substrate status", "setting": "[3]", "result": "substrate of P-gp"}, {"measurement": "Ki", "setting": "[4]", "result": 3.4, "unit": "µM"}, {"measurement": "passive permeability", "setting": "CaCo-2 cell layers", "result": "high"}, {"measurement": "dose dependence of exposure", "setting": "[5]", "result": "more than dose-proportional increase in exposure"}]}]}
